PubChem BioAssay AID2060489 (Molecular Pharmacology Branch, DTP, NCI, 2025)

Test system: 922993-354-T-J3-PDC complex spheroids, viability
Test: Anticancer human tumor 922993-354-T-J3-PDC patient-derived endometrial carcinoma cell line growth inhibition [GQUAD]
Conditions: for IC50: curve of first compound; for viability, T/C: stronger effect = lower value
Method in brief: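 Tumor cells were grown as complex spheroids with HUVEC endothelial cells and mesenchymal stem cells as stroma. G-quadruplex stabilizers were combined with targeted agents over half-log dilutions from near the clinical Cmax, or from 10 microM.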

[1] = second compound 0.0316 µM, first compound 0.0316 µM
[2] = second compound 0.0316 µM, first compound 0.316 µM
[3] = second compound 0.1 µM, first compound 0.0316 µM
[4] = second compound 0.1 µM, first compound 0.316 µM
[5] = second compound 0.316 µM, first compound 0.0316 µM
[6] = second compound 0.316 µM, first compound 0.316 µM
[7] = second compound 1 µM, first compound 0.0316 µM
[8] = second compound 1 µM, first compound 0.316 µM
[9] = second compound 3.16 µM, first compound 0.0316 µM
[10] = second compound 3.16 µM, first compound 0.316 µM
[11] = second compound 10 µM, first compound 0.0316 µM
[12] = second compound 10 µM, first compound 0.316 µM
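Note: spheroids exposed to compounds for seven days.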
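Throughout, for viability, T/C: 100% = DMSO vehicle control viability.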

## CCc1c2c(nc3ccc(O)cc13)-c1cc3c(c(=O)n1C2)COC(=O)[C@]3(O)CC + Cc1[nH]c2ccc(F)cc2c1-c1nc2c3cccnc3c3ncccc3c2[nH]1
Second compound 0.0316 µM
  IC50: 7.56 nM
Second compound 0.1 µM
  IC50: 8.08 nM
Second compound 0.316 µM
  IC50: 6.62 nM
Second compound 1 µM
  IC50: 8.02 nM
Second compound 3.16 µM
  IC50: 7.57 nM
Second compound 10 µM
  IC50: 6.77 nM
Second compound 0.0316 µM, first compound 0.000999 µM
  viability, T/C: 91.8%
Second compound 0.0316 µM, first compound 0.00316 µM
  viability, T/C: 68.3%
Second compound 0.0316 µM, first compound 0.00999 µM
  viability, T/C: 48.7%
[1]
  viability, T/C: 22.1%
Second compound 0.0316 µM, first compound 0.0999 µM
  viability, T/C: 25.9%
[2]
  viability, T/C: 32.9%
Second compound 0.1 µM, first compound 0.000999 µM
  viability, T/C: 103%
Second compound 0.1 µM, first compound 0.00316 µM
  viability, T/C: 81.9%
Second compound 0.1 µM, first compound 0.00999 µM
  viability, T/C: 44.2%
[3]
  viability, T/C: 24.4%
Second compound 0.1 µM, first compound 0.0999 µM
  viability, T/C: 25.4%
[4]
  viability, T/C: 33%
Second compound 0.316 µM, first compound 0.000999 µM
  viability, T/C: 119%
Second compound 0.316 µM, first compound 0.00316 µM
  viability, T/C: 76.1%
Second compound 0.316 µM, first compound 0.00999 µM
  viability, T/C: 36.6%
[5]
  viability, T/C: 23.4%
Second compound 0.316 µM, first compound 0.0999 µM
  viability, T/C: 24.6%
[6]
  viability, T/C: 36.5%
Second compound 1 µM, first compound 0.000999 µM
  viability, T/C: 101%
Second compound 1 µM, first compound 0.00316 µM
  viability, T/C: 82.4%
Second compound 1 µM, first compound 0.00999 µM
  viability, T/C: 43.4%
[7]
  viability, T/C: 24.3%
Second compound 1 µM, first compound 0.0999 µM
  viability, T/C: 22.6%
[8]
  viability, T/C: 32.1%
Second compound 3.16 µM, first compound 0.000999 µM
  viability, T/C: 105%
Second compound 3.16 µM, first compound 0.00316 µM
  viability, T/C: 67.2%
Second compound 3.16 µM, first compound 0.00999 µM
  viability, T/C: 53.6%
[9]
  viability, T/C: 15.6%
Second compound 3.16 µM, first compound 0.0999 µM
  viability, T/C: 31.4%
[10]
  viability, T/C: 28.9%
Second compound 10 µM, first compound 0.000999 µM
  viability, T/C: 102%
Second compound 10 µM, first compound 0.00316 µM
  viability, T/C: 65.4%
Second compound 10 µM, first compound 0.00999 µM
  viability, T/C: 48.5%
[11]
  viability, T/C: 18.8%
Second compound 10 µM, first compound 0.0999 µM
  viability, T/C: 22.9%
[12]
  viability, T/C: 33.6%

## COc1cc(C2c3cc4c(cc3C(OC3OC5COC(C)OC5C(O)C3O)C3COC(=O)C23)OCO4)cc(OC)c1O (centres undefined) + Cc1[nH]c2ccc(F)cc2c1-c1nc2c3cccnc3c3ncccc3c2[nH]1
Second compound 0.0316 µM
  IC50: > 10000 nM
Second compound 0.1 µM
  IC50: > 10000 nM
Second compound 0.316 µM
  IC50: > 10000 nM
Second compound 1 µM
  IC50: > 10000 nM
Second compound 3.16 µM
  IC50: > 10000 nM
Second compound 10 µM
  IC50: > 10000 nM
[1]
  viability, T/C: 95.3%
Second compound 0.0316 µM, first compound 0.1 µM
  viability, T/C: 89.1%
[2]
  viability, T/C: 83.8%
Second compound 0.0316 µM, first compound 1 µM
  viability, T/C: 99.4%
Second compound 0.0316 µM, first compound 3.16 µM
  viability, T/C: 76.6%
Second compound 0.0316 µM, first compound 10 µM
  viability, T/C: 61.3%
[3]
  viability, T/C: 113%
Second compound 0.1 µM, first compound 0.1 µM
  viability, T/C: 97.5%
[4]
  viability, T/C: 92.2%
Second compound 0.1 µM, first compound 1 µM
  viability, T/C: 92.6%
Second compound 0.1 µM, first compound 3.16 µM
  viability, T/C: 76.2%
Second compound 0.1 µM, first compound 10 µM
  viability, T/C: 62.7%
[5]
  viability, T/C: 110%
Second compound 0.316 µM, first compound 0.1 µM
  viability, T/C: 109%
[6]
  viability, T/C: 84.1%
Second compound 0.316 µM, first compound 1 µM
  viability, T/C: 110%
Second compound 0.316 µM, first compound 3.16 µM
  viability, T/C: 56.4%
Second compound 0.316 µM, first compound 10 µM
  viability, T/C: 61.8%
[7]
  viability, T/C: 138%
Second compound 1 µM, first compound 0.1 µM
  viability, T/C: 121%
[8]
  viability, T/C: 96.6%
Second compound 1 µM, first compound 1 µM
  viability, T/C: 75.8%
Second compound 1 µM, first compound 3.16 µM
  viability, T/C: 72.4%
Second compound 1 µM, first compound 10 µM
  viability, T/C: 71.4%
[9]
  viability, T/C: 125%
Second compound 3.16 µM, first compound 0.1 µM
  viability, T/C: 109%
[10]
  viability, T/C: 76.2%
Second compound 3.16 µM, first compound 1 µM
  viability, T/C: 97.6%
Second compound 3.16 µM, first compound 3.16 µM
  viability, T/C: 72.3%
Second compound 3.16 µM, first compound 10 µM
  viability, T/C: 60.5%
[11]
  viability, T/C: 111%
Second compound 10 µM, first compound 0.1 µM
  viability, T/C: 97.7%
[12]
  viability, T/C: 79.1%
Second compound 10 µM, first compound 1 µM
  viability, T/C: 82.8%
Second compound 10 µM, first compound 3.16 µM
  viability, T/C: 74.2%
Second compound 10 µM, first compound 10 µM
  viability, T/C: 58.8%
